Our source for the Relative potency values is ChEMBL document CHEMBL1122339, “Structure-activity studies of configurationally rigid arylprostaglandins” (1983).

One experiment is filed under the species Cavia porcellus. Nature of the experiment: In vitro potency relative to PGE-2 (=100 for uterine stimulant activity in guinea pig at 0.1-10 ug/mL concentration). The format is functional.
In experiment [1] the test system is Mus musculus. Kind of experiment: In vivo potency relative to PGE-2 =100 for diarrheal activity in conscious mice. The class given is functional.
The test system of experiment [2] is Mus musculus. Kind of experiment: In vivo potency relative to PGE-2 =100 for diarrheal activity in conscious mice at 0.3-3.0 mg/kg, iv; No effect. The class given is functional, organism-based.

The structures appear in SMILES notation. Active and inactive are the calls of the source. The calls are words filed in the database; no cut-off is given here.

On to `O=C(O)CCC/C=C\C[C@@H]1C(/C=C/[C@@H](O)[C@@H]2CCc3ccccc3C2)[C@H](O)C[C@@H]1O` (stereo partly drawn), for which the Relative potency in the experiment filed under Cavia porcellus worked out at 18; in the experiment on Mus musculus [1] it was 40. On the same counts, the results for `O=C(O)CCC/C=C\C[C@@H]1C(/C=C/[C@@H](O)[C@@H]2CCc3ccccc3O2)[C@H](O)C[C@@H]1O` (stereo partly drawn) are 25 and 1100. `O=C(O)CCC/C=C\C[C@@H]1C(/C=C/[C@H](O)[C@H]2CCc3ccccc3C2)[C@H](O)C[C@@H]1O` (stereo partly drawn) displayed a Relative potency in the experiment listed under Cavia porcellus of 0.1. Regarding `O=C(O)CCC/C=C\C[C@@H]1C(/C=C/[C@H](O)C2Cc3ccccc3C2)[C@H](O)C[C@@H]1O` (stereo partly drawn), the Relative potency result in the experiment with Mus musculus [2] was “inactive”. Moreover, the Relative potency in the experiment filed under Cavia porcellus is on record as 0.07. With `O=C(O)CCC/C=C\C[C@H]1C(=O)C[C@@H](O)C1/C=C/[C@H](O)[C@@H]1CCc2ccccc2O1` (stereo partly drawn), the Relative potency in the experiment listed under Cavia porcellus was 7.

The compound `O=C(O)CCC/C=C\C[C@H]1C(=O)C[C@@H](O)C1/C=C/[C@H](O)[C@H]1CCc2ccccc2O1` (stereo partly drawn) yielded a Relative potency in the experiment filed under Cavia porcellus of 3.

Compound `O=C(O)CCC/C=C\C[C@H]1C(=O)C[C@@H](O)C1/C=C/[C@H](O)[C@@H]1CCc2ccccc2C1` (stereo partly drawn) gave a Relative potency in the experiment listed under Cavia porcellus of 2.

On to `O=C(O)CCC/C=C\C[C@H]1C(=O)C[C@@H](O)C1/C=C/[C@H](O)C1Cc2ccccc2C1` (stereo partly drawn), for which, in the experiment on Mus musculus [2], the Relative potency entry was “inactive”. This compound also yielded a Relative potency in the experiment listed under Cavia porcellus of 0.3. On the same counts, the results for `O=C(O)CCC/C=C\C[C@H]1C(=O)C[C@@H](O)C1/C=C/[C@H](O)[C@H]1CCc2ccccc2C1` (stereo partly drawn) are “inactive” and 0.1. On to `O=C(O)CCC/C=C\C[C@@H]1C(/C=C/[C@H](O)COc2ccccc2)[C@H](O)C[C@@H]1O` (stereo partly drawn), for which, in the experiment listed under Cavia porcellus, the Relative potency is 300. `O=C(O)CCC/C=C\C[C@H]1C(=O)C[C@@H](O)C1/C=C/[C@@H](O)C1Cc2ccccc2C1` (stereo partly drawn): the Relative potency in the experiment listed under Cavia porcellus is 6; with Mus musculus [1] it was 25. In the case of `O=C(O)CCC/C=C\C[C@H]1C(=O)C[C@@H](O)C1/C=C/[C@@H](O)[C@@H]1CCc2ccccc2C1` (stereo partly drawn), the figures for the Relative potency in the experiment listed under Cavia porcellus and in the experiment with Mus musculus [1] were 36 and 40, respectively. Consider `O=C(O)CCC/C=C\C[C@@H]1C(/C=C/[C@@H](O)[C@H]2Cc3ccccc3O2)[C@H](O)C[C@@H]1O` (stereo partly drawn), for which the results for the Relative potency in the experiment filed under Cavia porcellus and in the experiment on Mus musculus [1] were 0.2 and 10, respectively. Turning to `O=C(O)CCC/C=C\C[C@H]1C(=O)C[C@@H](O)C1/C=C/[C@@H](O)[C@H]1Cc2ccccc2O1` (stereo partly drawn), the Relative potency result in the experiment on Mus musculus [2] is “inactive”. In the experiment filed under Cavia porcellus, the Relative potency is 0.1. On the same counts, the results for `O=C(O)CCC/C=C\C[C@H]1C(=O)C[C@@H](O)C1/C=C/[C@@H](O)[C@H]1CCc2ccccc2C1` (stereo partly drawn) are “inactive” and 44. With `O=C(O)CCC/C=C\C[C@H]1C(=O)C[C@@H](O)C1/C=C/[C@@H](O)[C@@H]1Cc2ccccc2O1` (stereo partly drawn), the Relative potency is on record as 18 in the experiment filed under Cavia porcellus and above 250 with Mus musculus [1].

As for `O=C(O)CCC/C=C\C[C@@H]1C(/C=C/[C@H](O)[C@@H]2CCc3ccccc3C2)[C@H](O)C[C@@H]1O` (stereo partly drawn), the Relative potency in the experiment filed under Cavia porcellus was 0.1. For `O=C(O)CCC/C=C\C[C@@H]1C(/C=C/[C@@H](O)[C@H]2CCc3ccccc3C2)[C@H](O)C[C@@H]1O` (stereo partly drawn), the Relative potency in the experiment listed under Cavia porcellus is recorded as 2; in the experiment with Mus musculus [1], 10.

As for `O=C(O)CCC/C=C\C[C@@H]1C(/C=C/[C@@H](O)COc2ccccc2)[C@H](O)C[C@@H]1O` (stereo partly drawn), the Relative potency in the experiment filed under Cavia porcellus stood at 15; with Mus musculus [1], 150. On the same counts, the results for `O=C(O)CCC/C=C\C[C@@H]1C(/C=C/[C@@H](O)C2Cc3ccccc3C2)[C@H](O)C[C@@H]1O` (stereo partly drawn) are 0.3 and 50. Regarding `O=C(O)CCC/C=C\C[C@@H]1C(/C=C/[C@@H](O)[C@H]2CCc3ccccc3O2)[C@H](O)C[C@@H]1O` (stereo partly drawn), the Relative potency in the experiment filed under Cavia porcellus is recorded as 19; in the experiment on Mus musculus [1], 310. `O=C(O)CCC/C=C\C[C@@H]1C(/C=C/[C@H](O)[C@@H]2CCc3ccccc3O2)[C@H](O)C[C@@H]1O` (stereo partly drawn) had a Relative potency in the experiment listed under Cavia porcellus of 0.4. `O=C(O)CCC/C=C\C[C@@H]1C(/C=C/[C@H](O)[C@H]2CCc3ccccc3O2)[C@H](O)C[C@@H]1O` (stereo partly drawn) came in with a Relative potency in the experiment listed under Cavia porcellus of 0.8. `O=C(O)CCC/C=C\C[C@H]1C(=O)C[C@@H](O)C1/C=C/[C@H](O)C1Cc2ccccc2O1` (stereo partly drawn): the Relative potency in the experiment listed under Cavia porcellus was determined as 19; with Mus musculus [1] it was 15.

Consider `O=C(O)CCC/C=C\C[C@@H]1C(/C=C/[C@H](O)C2Cc3ccccc3O2)[C@H](O)C[C@@H]1O` (stereo partly drawn), for which the Relative potency was found to be 0.3 in the experiment listed under Cavia porcellus and 15 in the experiment on Mus musculus [1]. `O=C(O)CCC/C=C\C[C@@H]1C(/C=C/[C@@H](O)[C@@H]2Cc3ccccc3O2)[C@H](O)C[C@@H]1O` (stereo partly drawn): the values for the Relative potency in the experiment listed under Cavia porcellus and in the experiment on Mus musculus [1] were 5 and 190, respectively. As to `O=C(O)CCC/C=C\C[C@H]1C(=O)C[C@@H](O)C1/C=C/[C@@H](O)[C@H]1CCc2ccccc2O1` (stereo partly drawn), the figures for the Relative potency in the experiment listed under Cavia porcellus and in the experiment on Mus musculus [1] were 66 and 270, respectively. Regarding `O=C(O)CCC/C=C\C[C@H]1C(=O)C[C@@H](O)C1/C=C/[C@@H](O)[C@@H]1CCc2ccccc2O1` (stereo partly drawn), the Relative potency in the experiment listed under Cavia porcellus amounted to 130; in the experiment on Mus musculus [1], 730.
